Results published in patent publication US20240158447A1, “PEPTIDES FOR USE IN THE TREATMENT OR PREVENTION OF MYOCARDIAL DAMAGE” (THE UNIVERSITY OF WESTERN AUSTRALIA, priority 2020, published 2024).

Legend:
Type in all cases: cell-based, mouse
cTnI.2 wt myocytes = experiment: Flavoprotein oxidation response to BayK(−), wt myocytes (Example 10); conditions: 10 μM BayK(−)
Method: (§1) In this experiment wt myocytes were pre-exposed to 0.1, 0.5 or 1 μM for 20 min and assessed changes in flavoprotein oxidation and ψm.
Measurement of mitochondrial flavoprotein oxidation: Flavoprotein autofluorescence was used to measure flavoprotein oxidation based on previously described methods (Yaniv Y, Juhaszova M, Lyashkov A E, Spurgeon H A, Sollott S J, Lakatta E G. Ca2+-regulated-cAMP/PKA signaling in cardiac pacemaker cells links ATP supply to demand. J Mol Cell Cardiol. 2011; 51(5):740-8). […] Fluorescent images were acquired at 1 min intervals with 200 ms exposure. Metamorph 6.3 (Version 7.10.3) was used to quantify the signal by manually tracing myocytes. An equivalent region not containing cells was used as background and was subtracted. Fluorescence values recorded over 5 min before and 5 min after addition of drugs were averaged and alterations in fluorescent ratios reported as the percentage increase from the basal average. FCCP (50 μM) and NaCN (40 mM) was added at the end of each experiment to achieve a respective maximal and minimal fluorescence value indicative of maximal and minimal flavoprotein oxidation.
The ICA-L agonist BayK(−) was used to activate the channel and assess mitochondrial function. […] FIG. 10 presents the mean+/−SEM of flavoprotein fluorescence from cTnI.2 wt and cTnI-G2035 mutant myocytes before and after exposure to 10 μM BayK(−) in the presence of 1 μM AID(S)-TAT, and increasing concentrations of variant peptides as indicated. N=no. of animals, n=no. of cardiomyocytes. P values shown compared with AID(S)-TAT as determined by the Kruskal-Wallis test.

[1] = test system: cTnI-G203S mutant myocytes; experiment: Mitochondrial membrane potential (JC-1) response to BayK(−), cTnI-G203S myocytes (Example 10)
Method: as §1
Measurement of mitochondrial membrane potential: The fluorescent indicator 5,5′,6,6′-tetrachloro1,1′,3,3′-tetraethylbenzimidazolylcarbocyanine iodide (JC-1) was used to measure mitochondrial membrane potential (ψm) as previously described (Viola H M, Arthur P G, Hool L C. Transient exposure to hydrogen peroxide causes an increase in mitochondria-derived superoxide as a result of sustained alteration in L-type Ca2+ channel function in the absence of apoptosis in ventricular myocytes. Circ Res. 2007; 100(7):1036-44). […] Images were acquired at 2 min intervals with 50 ms exposure. Metamorph 6.3 (Version 7.10.3) was used to quantify the signal by manually tracing myocytes. An equivalent region not containing cells was used as background and was subtracted. The 580 nm/535 nm ratiometric fluorescence values recorded over 6 min before and 4 min after addition of drugs were averaged and alterations in fluorescent ratios reported as the percentage increase from the basal average. To confirm that the signal was indicative of ψm, 40 mM NaCN was added at the end of each experiment to collapse ψm. In addition, individual 580 and 535 signals were assessed in each experiment to determine whether the fluorescent indicator was accurately measuring ψm. For calcium-free experiments, cells were exposed to calcium-free HBS (supplemented with 3 mM EGTA and 200 nM JC-1) for at least 3 h prior to measuring changes in ψm.
Based on results obtained from in vitro assessment of flavoprotein oxidation, the effect of 0.5 μM AID-TAT variants on changes in mitochondrial membrane potential (ψm) was further explored. Experiments were performed using JC-1 fluorescence under calcium-free conditions as previously described (Viola H, Johnstone V, Cserne Szappanos H, Richman T, Tsoutsman T, Filipovska A, et al. The L-type Ca(2+) channel facilitates abnormal metabolic activity in the cTnI-G2035 mouse model of hypertrophic cardiomyopathy. J Physiol. 2016; 594(14):4051-70; Viola H M, Shah A A, Johnstone V P A, Cserne Szappanos H, Hodson M P, Hool L C. Characterization and validation of a preventative therapy for hypertrophic cardiomyopathy in a murine model of the disease. Proc Natl Acad Sci U S A. 2020; 117(37):23113-24). […] FIG. 11 presents the mean+/−SE of JC-1 fluorescence from cTnI.2 wt and cTnI-G203S mutant myocytes before and after exposure to 10 μM BayK(−) in the presence of 1 μM AID(S)-TAT, and 0.5 μM of variant peptides as indicated. N=no. of animals, n=no. of cardiomyocytes. P values shown compared with AID(S)-TAT as determined by the Kruskal-Wallis test.

[2] = test system: wild type cardiac myocytes; experiment: Mitochondrial membrane potential (JC-1) after H2O2 in cardiac myocytes; conditions: 20 min incubation with 0.5-1 μM peptide; calcium-free; 30 μM H2O2 5 min; FIG. 3(c)
Method: Adult male C57BL/6J mice were anesthetized with pentobarbitone sodium (240 mg/kg) via intraperitoneal injection prior to excision of the heart. Ventricular myocytes were isolated. Mouse hearts were cannulated onto a Langendorff apparatus via the aorta and perfused retrogradely with Krebs-Henseleit Buffer (KHB) containing (in mM): 120 NaCl, 25 NaHCO3, 4.8 KCl, 2.2 MgSO4, 1.2 NaH2PO4 and 11 glucose (pH=7.35 with O2/CO2 at 37° C.) for 4 min at 37° C. Hearts were then perfused with KHB supplemented with 2.4 mg/ml collagenase B for 3 min, then 8 min perfusion in the presence of 40 μM calcium. […]
All in vitro studies were performed in freshly isolated myocytes at 37° C. […] Following a 20 min incubation with 0.5-1 μM AID(S)-TAT, AID-TAT, peptide 6 or peptide 7, fluorescent signal of individual myocytes was quantified using Metamorph 6.3 to measure signal intensity of manually traced cell regions. […]
Mitochondrial membrane potential (Ψm) was monitored in cardiac myocytes by assessing alterations in 5,5′,6,6′-tetrachloro-1,1′,3,3′-tetraethylbenzimidazolylcarbocyanine iodide fluorescence (JC-1: 200 nM, ex 480 nm, em 580/535 nm, Molecular Probes). […] Ratiometric 580/535 nm fluorescent signal was quantified and reported as a percentage from the baseline pre-treatment average. […]

AIDP7-TAT: QQQEEDLKGYLDWITQAE with TAT sequence
BayK(−) induced increase in flavoprotein oxidation (cTnI.2 wt myocytes; 0.5 μM peptide 20 min, FIG. 10B): effective | BayK(−) induced increase in flavoprotein oxidation (cTnI.2 wt myocytes; 1 μM peptide 20 min, FIG. 10A): just as effective at attenuating the response in wt myocytes as the original AID-TAT | BayK(−) induced increase in ψm (JC-1 fluorescence) ([1]; 0.5 μM peptide, calcium-free, FIG. 11B): significantly attenuated the response | normalising mitochondrial metabolic activity (in vitro, overall) ([1]; flavoprotein oxidation and JC-1 data together): most effective in normalising mitochondrial metabolic activity | mitochondrial membrane potential (JC-1) [2]: reduced the mitochondrial membrane potential
